Experimental data taken from patent US10738082B2, “One-bead-two-compound macrocyclic library and methods of preparation and use” (University of South Florida, priority 2017, dated 2020).

Assays:
cell migration = conditions: 10 μM, 24 hours
Experimental: Invasion and migration assays were performed as described before. Cells were plated into the top chambers and treated with either vehicle or 10 μM C-84. 24 hours later cells in top chamber were scraped and migrated cells were fixed with crystal violet staining.

cell invasion = test: Cell invasion assay; format: cell-based; conditions: 10 μM, 24 hours
Experimental: Invasion and migration assays were performed as described before.

GST protein = GST protein (Schistosoma japonicum, UniProt P08515); test: Fluorescence polarization (FP) binding assay, GST protein
Chain of GST protein (P08515 whole entry): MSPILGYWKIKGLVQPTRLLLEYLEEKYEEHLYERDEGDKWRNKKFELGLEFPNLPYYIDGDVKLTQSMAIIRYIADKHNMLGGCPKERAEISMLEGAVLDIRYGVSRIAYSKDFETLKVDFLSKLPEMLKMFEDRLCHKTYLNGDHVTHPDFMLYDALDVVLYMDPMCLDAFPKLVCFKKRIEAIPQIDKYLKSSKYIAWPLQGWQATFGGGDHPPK

SMILES: NC(=O)CN1C[C@H](Cc2ccccc2)NC(=O)CN(C(=O)CCC(=O)O)C[C@H](CCC(=O)O)NC(=O)CN(C(=O)Cc2ccc3c(c2)OCO3)C[C@H](CCC(=O)O)NC(=O)CN(C(=O)CCC2CCCCC2)C[C@H](Cc2ccccc2)NC(=O)c2ccc(cc2)CSCCC1=O [C-84]
- decrease in cell migration (cell migration): around 70%
- decrease in cell invasion (cell invasion): ~80%

SMILES: NC(=O)[C@H](CCCCNC(=S)Nc1ccc(-c2c3ccc(=O)cc-3oc3cc(O)ccc23)c(C(=O)O)c1)NC(=O)CN1C[C@H](Cc2ccccc2)NC(=O)CN(C(=O)CCC(=O)O)C[C@H](CCC(=O)O)NC(=O)CN(C(=O)Cc2ccc3c(c2)OCO3)C[C@H](CCC(=O)O)NC(=O)CN(C(=O)CCC2CCCCC2)C[C@H](Cc2ccccc2)NC(=O)c2ccc(cc2)CSCCC1=O [YS-D-44]
- GST binding weaker than EphA2 binding (GST protein; Kd GST vs Kd EphA2): ~150 fold
- Kd (GST protein; fluorescence polarization, 50 nM FITC labeled AApeptide, GST 0.3125 to 55 μM, read-out: binding affinity to GST protein, Kd): 12.3 µM
